According to patent US8557864B2, “Agent having neurotrophic factor-like activity” (Nagoya Industrial Science Research Institute, priority 2007, dated 2013):

What was measured:
MAP kinases = experiment: Measurement of activation of MAP kinases in cultured nerve cells (western immunoblotting); type: cell-based; conditions: fetal rat cerebral cortex nerve cells, compound 500 μg/ml, 30 minutes, relative to control
Protocol: Activation of MAP kinases was measured on respective compounds in Table 1 including the compound obtained in Production Example with western immunoblotting as follows. Nerve cells were dispersed from a cerebral cortex of a 17-day-old fetal rat and the nerve cells were cultured in a Dulbecco's modified eagle medium (DMEM) containing 5%; fetal bovine serum for 1 day. A culture solution was exchanged to a serum-free medium (B27 supplement added Neurobasal, Invitrogen Corporation), and the nerve cells were cultured in a culture petri dish coated with polyornithine at a density of 20,000 to 40,000 cells/cm^2. Three days later, each of the compounds in Table 1 was added thereto, and culture for 30 minutes was continued. Then, cells were recovered on ice with a solution of a Tris-HCL buffer as a base containing a phosphatase inhibitor. The protein concentration of the obtained cell extraction was determined using a BCA Protein Assay Kit (TAKARABIO INC.), a constant amount (3 μg for MAP kinase measurement, 5 μg for phosphorylated MAP kinase measurement) of the protein was electrophoresed with a polyacrylic amide gel. The protein was transcribed to a PVDF membrane from the gel after electrophoresis, and western immunoblotting was carried out using the primary antibodies: an anti-MAP kinase antibody (Cell Signaling Technology, Inc.) and an antiphosphorylated MAP kinase antibody (Cell Signaling Technology, Inc.), respectively. Subsequently, an enzyme activity was subjected to color development by being reacted with the secondary antibody: an alkaline phosphatase labeled anti-rabbit IgG antibody (Promega KK) to measure MAP kinases and phosphorylated MAP kinases. In addition, each compound was dissolved in 0.7% DMSO and adjusted to have a concentration of 500 μg/ml. A control was added with a phosphoric acid buffer containing 0.1% DMSO in the same amount as the compound.
The above obtained concentration measurement of the electrophoresis gel band was digitalized by calculating an intensity with Image J (BioArts International, Inc.). The numerical value of MAP kinases of each compound was divided by the numerical value of the control's MAP kinases, and the numerical value of phosphorylated MAP kinases of each compound was divided by the numerical value of the control's phosphorylated MAP kinases to find a ratio of the MAP kinases of each compound to the control and a ratio of the phosphorylated MAP kinases of the each compound to the control. Then, the obtained ratio of the phosphorylated MAP kinases to the control was divided by the obtained ratio of the MAP kinases to the control to find a ratio of the phosphorylated MAP kinases to the MAP kinases and graphs were formed and shown in FIGS. 1 to 3. Compound 1, compound 6, compound 11, compound 16, compound 21 and compound 36 in Table 1 were used from products made by Wako Pure Chemical Industries, Ltd.

[1] = tested on: mice under chronic mild stress; experiment: Tail suspension test comparing compound 8 and fluvoxamine after chronic mild stress; type: in vivo; conditions: fluvoxamine 1000 μg/kg intraperitoneally once per day
Protocol: 7-week-old male ddY strain mice fed in one cage for 4 mice were first subjected to forced swimming for 15 minutes in the same manner as stress in Example 2 (behavior test of mice under stress) (1) described in the paragraph [0063] in the specification. Then, stress for 1 week using 3 kinds of cages was regarded as 1 cycle, and the stress was applied for 3 cycles (3 weeks) and chronic mild stress (CMS) was applied. The compound 8 and fluvoxamine were administered to mice immediately after stress in Exp. 1, 1 week after stress in Exp. 2, and 2 weeks after stress in Exp. 3, respectively, and tail suspension tests were carried out on the respective test groups. In each test group, the compound 8 was adjusted in concentration so as to have each of the doses of […] and fluvoxamine was adjusted in concentration so as to have a dose of 1000 μg/kg, by dissolving in 0.1% DMSO, and each dose of the compound 8 and fluvoxamine were intraperitoneally injected to mice once per day from the time immediately after stress. Further, to 7-week-old male ddY strain mice fed in one cage for 4 mice without stress, the compound 8 and fluvoxamine were administered to carry out the tail suspension tests in the same manner as the stressed mice. FIG. 31 show the result. A significance test was performed in a Student's t-test (*). […] “DAEE” denotes the compound 8 and “Flu” denotes fluvoxamine.

mice = experiment: Voluntary alternation behavior test (Y-maze test) of mice administered with trimethyltin; type: in vivo; conditions: TMT 2 mg/kg weight intraperitoneally
Protocol: The voluntary alternation behavior test (Y-maze test) is one kind of a behavior test using a Y-shaped maze constituted with three arms. First, a mouse is placed on the tip of one arm out of the three arms, letting the mouse freely explore in the maze over 8 minutes, and arms where the mouse transferred are recorded in order. Then, the number of times of transferring to each arm (total arm selection number (total arm entries)) and the number of sequentially selecting three different arms (number of alternation behavior (number of spontaneous behavior)) are counted.
Trimethyltin (hereinafter referred to as “TMT”) is an organic metal compound having neurotoxicity, and acute nerve cell death is cased particularly in granular nerve cells of the hippocampus dentate gyrus, which thus affects memory and learning abilities of a mouse.
The voluntary alternation tests (Y-maze tests) were performed on 1) test groups to which the compound 8 was singly administered and 2) test groups to which TMT and the compound 8 were administered. In the test groups to which the compound 8 was singly administered, the compound 8 was dissolved in 0.1% DMSO to adjust a concentration so as to have each of the doses of 100 and 500 μg/kg and intraperitoneally injected to 6 mice in every administration example each in a dose of 0.25 mL. In 0 μg/kg weight administration examples of controls, 0.25 mL of a phosphoric acid buffer containing 0.1% DMSO was intraperitoneally injected in each time. The voluntary alternation tests (Y-maze tests) were performed on each of the administration groups after the elapse of 2 hours from intraperitoneal administration. In the test group in which TMT and the compound 8 were administered, TMT (2 mg/kg weight) was intraperitoneally administered to a mouse, and the compound 8 was intraperitoneally administered in the same manner as the test groups in which the compound 8 was singly administered after 2 days have passed, and the voluntary alternation test (Y-maze test) was performed after the elapse of 2 hours. FIG. 32 show the results. Significance tests were performed in a Turkey's test (*, ##) and a Student's t-test (++). “DAEE” denotes the compound 8.

SMILES | ratio of phosphorylated MAP kinases to MAP kinases (MAP kinases) | also measured
CCOC(=O)/C=C(\C)CCC=C(C)C [Compound 77, geranic acid ethyl ester] | high activities | –
C=CCCCCCCCC(=O)OC [Compound 12, trans-9-decenoic acid methyl ester] | high activities | –
C=CCCCCCCCC(=O)OCC [Compound 13, trans-9-decenoic acid ethyl ester] | high activities | –
C=CCCCCCCCCC(=O)OCC [Compound 23, trans-10-undecenoic acid ethyl ester] | high activities | –
CCCCCCC/C=C/COC(=O)/C=C/CCCCCCC [Compound 47, trans-2-decenoic acid-trans-2-decenyl ester] | twice or more | –
CCOC(=O)CC(C)CCCC(C)C (stereo not drawn) [Compound 78, 3,7-dimethyloctanoic acid ethyl ester] | high activities | –
CCCCCCC/C=C/C(=O)OC(C)C [Compound 54, trans-2-decenoic acid isopropyl ester] | twice or more | –
CCCCCCC/C=C/C(=O)OC [Compound 7, trans-2-decenoic acid methyl ester] | twice or more | ratio of phosphorylated MAP kinases to MAP kinases (MAP kinases; listed as trans-2-decenic acid methyl ester): 6 times
COCCCC/C(=N\OCCN)c1ccc(C(F)(F)F)cc1 [fluvoxamine] | – | effect on depressive symptom (immobility time) ([1]; Exp. 2 (1 week after stress), compound 8 500 μg/kg): an effect could not be recognized; effect on depressive symptom (immobility time) ([1]; Exp. 3 (2 weeks after stress)): recognized only in Exp. 3
CCCCCCCCCC(=O)OCC [Compound 3, decanoic acid ethyl ester] | high activities | –
C=CCCCCCCCCC(=O)OC [Compound 22, trans-10-undecenoic acid methyl ester] | high activities | –
CCCCCCC/C=C/C(=O)OCCCCCCCC [Compound 53, trans-2-decenoic acid octyl ester] | twice or more | –
CCCCCCCCCC(=O)OC [Compound 2, decanoic acid methyl ester] | high activities | –
CCCCCCC/C=C/C(=O)OC1CCCCC1 [Compound 48, trans-2-decenoic acid cyclohexyl ester] | twice or more | –
[CH3][Sn+]([CH3])[CH3] [TMT, Trimethyltin, reference compound] | – | voluntary alternation behavior after TMT treatment (mice): significantly decreased
CCCCCCC/C=C/C(=O)O [Compound 6, trans-2-decenoic acid] | high activities | –
